Data on 80 compounds can be found in the METLIN SMRT retention time set (Domingo-Almenara et al. 2019).

This series is described as follows: gradient 5% acetonitrile 3 min, to 50% in 2 min, to 85% in 15 min, held 3 min, 100 µL/min. The following applies: column: Zorbax Extend-C18 2.1 x 50 mm; eluents: water / acetonitrile, 0.1% formic acid. An outline of the steps:
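Retention time was recorded from adduct peaks, which were picked computationally and each inspected manually. Pure standards ran in mixtures of ~100 molecules on HPLC coupled to a quadrupole time-of-flight mass spectrometer, in positive and negative ionization mode, through a Zorbax Extend-C18 column (2.1 × 50 mm, 1.8 μm) at 100 μL/min. Eluents were water and acetonitrile, each with 0.1% formic acid.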
With `CCOC(=O)c1ccc(NC(=O)C2C(=O)N(C)C3(C)CC2c2ccccc2O3)cc1` (stereo not given), the RP-LC retention time turned out to be 1000 s.
`Cc1cn2c(S(=O)(=O)N3CCCCC3)c(C(C)C)nc2s1` registered an RP-LC retention time of 1020 s.
`CCc1nc(-c2cc(S(=O)(=O)N3CCC(C(=O)NC4CCCCCCC4)CC3)c(C)s2)no1` gave an RP-LC retention time of 1130 s.
The same measure for `CCCn1cc(C(=O)NC2CCN(Cc3ccccc3)CC2)c2cccnc21`: 624 s; for `CC1=C(c2ccc(C)c(C)c2)S(=O)(=O)N=C1N1CCCN(C(=O)c2ccoc2)CC1`: 764 s; for `O=C(NC1CCCC1)C1CCc2sc(C(=O)N3CCCCCC3)cc2C1` (stereo not given): 900 s.
The same measure for `CN(C)C(=O)c1cn(C2CN(S(=O)(=O)c3ccc4c(c3)CCC4)C2)nn1`: 774 s; for `Cn1c(=O)c(N2CCN(C(=O)c3ccccc3F)CC2)nc2ccccc21`: 864 s; for `N#Cc1ccc2[nH]cc(CCCCN3CCN(c4ccc5oc(C(N)=O)cc5c4)CC3)c2c1`: 702 s.
For the compound `CCCCNC(=O)c1c(OCC(C)C)cc(=O)n2c1CCCCC2`, the RP-LC retention time worked out at 755 s.
Regarding `Cc1cc(NC(=O)Cn2nc(N3CCCC3)c3ccccc3c2=O)ccc1Br`, the RP-LC retention time is 1060 s.
`Cc1cccc(OCCCn2c(CO)nc3ccccc32)c1` yielded an RP-LC retention time of 678 s.
For `COc1cc(-c2nc3ccc(Cl)cn3c2Nc2ccc(Cl)cc2)ccc1O`, the RP-LC retention time was determined as 746 s.
In the case of `Cn1nccc1C(=O)N1CCCC1c1nc(-c2cccc(C(F)(F)F)c2)no1` (stereo not given), the RP-LC retention time was determined as 940 s.
On to `CC1CCCN(Cc2nc(-c3ccc(N(C)Cc4ccccc4)nc3)no2)C1` (stereo not given), for which the RP-LC retention time was found to be 734 s.
`Cc1cccc(NC(=O)N2CCCC2C(=O)NC2CC2)c1` (stereo not given) showed an RP-LC retention time of 655 s.
For `CCN(C(=O)c1cccc(F)c1)c1nc(-c2ccccc2)cs1` the value was 1230 s; for `Cc1nc(C2CCCCN2C(=O)c2ccco2)n[nH]1` (stereo not given), 593 s.
The same measure for `Cc1ccc(CNC(=O)C2(C)Cn3cnc(C(=O)NC4CCCCC4)c3C(=O)N2C2CC2)cc1` (stereo not given): 819 s; for `Cc1nc(-c2ccc(F)cc2)sc1C(=O)NC(C)C`: 890 s.
The same measure for `CCOC(=O)c1ccc(NC(=O)c2ccccc2-c2ccccc2C(=O)O)cc1`: 842 s; for `CCOc1ccccc1CNC(=O)C1CCN(C(=O)c2ncn3c2COC(c2ccccc2)C3)CC1` (stereo not given): 803 s; for `Cc1ccc(-c2ccc3nn(Cc4nc(-c5cccc(Br)c5)no4)c(=O)n3n2)cc1`: 1070 s.
As to `CCOC(=O)Cc1c(C)nc2c(-c3ccccc3OC)c(C)nn2c1C`, the RP-LC retention time came out at 943 s.
The same measure for `Cc1nc(NC(=O)c2ccc(Cl)cc2)nc2cc3c(cc12)OCO3`: 750 s.
Compound `O=C(NCCCN1CCOCC1)c1c(OCC2CC2)cc(=O)n2c1CCCCC2` registered an RP-LC retention time of 568 s.
The same measure for `COCCNC(=O)N1CCN(Cc2nc3cc(C(=O)N(C)C)ccc3o2)CC1`: 559 s.
Take `O=C(CN1C(=O)C(C(=O)N2CCCCCC2)Sc2ccccc21)NC1CCCCC1` (stereo not given): the RP-LC retention time turned out to be 1090 s.
As for `O=C(CSc1ccc(-c2ccco2)nn1)N1CCCCC1`, the RP-LC retention time worked out at 690 s.
In turn, `Cc1cc(N2CCN(C(=O)Nc3ccc4c(c3)OCO4)CC2)nc(N2CCCCC2)n1` came in with an RP-LC retention time of 660 s.
The compound `Cc1ccc(C)c(NC(=O)C2CCCN(S(=O)(=O)c3cc(-c4noc(C)n4)cs3)C2)c1` (stereo not given) showed an RP-LC retention time of 1060 s.
Compound `Cc1noc(C)c1S(=O)(=O)N1CCC(C(=O)NCCc2csc(-c3cccs3)n2)CC1` returned an RP-LC retention time of 858 s.
For the compound `CCCC(NC(=O)c1ccc(F)c(F)c1)C(=O)Nc1nc2ccccc2[nH]1` (stereo not given), the RP-LC retention time is 712 s.
Turning to `COc1ccc(C2OC(c3cc(OC)c(OC)c(OC)c3)=NN2C(C)=O)c(OC)c1` (stereo not given), the RP-LC retention time turned out to be 885 s.
`COc1ccc(-c2nc(-c3ccc4c(c3)ncn4CCN3CCOCC3)no2)c(C)c1`: the RP-LC retention time came to 666 s.
Compound `COc1cn(CC(=O)Nc2cccc(C)c2C)c(CN2CCCCCC2)cc1=O` had an RP-LC retention time of 574 s.
Turning to `COCCC(=O)N1CCc2c(c(-c3nc(C4CC4)no3)nn2C)C1`, the RP-LC retention time stood at 670 s.
For `O=C(Cn1nc2nc(Nc3ccc(F)cc3)ccn2c1=O)Nc1ccc(F)cc1` the value was 751 s; for `Cc1ccc(-c2nc3cccc(C)n3c2Nc2ccccc2)cc1`, 741 s.
Regarding `O=C(CCCSc1ccc(NC(=O)c2cccs2)nn1)Nc1cnc2ccccc2c1`, the RP-LC retention time turned out to be 706 s.
Take `CCOC(=O)C1CCN(C(=O)c2nc(N3CCCC3)c3c(C)cc(C)nc3n2)CC1`: the RP-LC retention time came out at 631 s.
Compound `O=C(Cn1cnc(-c2noc(-c3ccncc3)n2)c1)NCc1ccc(Cl)cc1` came in with an RP-LC retention time of 695 s.
Take `COc1ccccc1-c1noc(C2CCCN2C(=O)NC(C)C)n1` (stereo not given): the RP-LC retention time is 753 s.
`O=C(NCC1CCOCC1)Nc1cc(F)c(F)c(F)c1` gave an RP-LC retention time of 755 s.
Take `CC(C)C(=O)Nc1ccc(-n2cnc(C(=O)N3CCSCC3)c2)nc1`: the RP-LC retention time stood at 679 s.
For `COc1ccc(OCC(=O)N2CCC(Nc3cccnc3)C2)cc1` (stereo not given), the RP-LC retention time is 726 s.
Turning to `CS(=O)(=O)N1CC(n2cc(C(=O)N3CCOCC3)nn2)C1`, the RP-LC retention time came to 573 s.
Take `CCN(CC)CCCNC(=O)C1CCCN(c2ncc(-c3cccc(F)c3)cn2)C1` (stereo not given): the RP-LC retention time came out at 677 s.
Take `COc1ccc(CNC(=O)[C@@]23CCCC[C@H]2N(C)C(=O)CC3)c(OC)c1`: the RP-LC retention time is 663 s.
The compound `CC(C)c1nnc(-c2cccnc2N2CCN(C(=O)c3ccc4cc[nH]c4c3)CC2)o1` showed an RP-LC retention time of 777 s.
Consider `O=C(Cc1csc2nc(-c3cccc(Br)c3)cn12)N1CCN(c2ccccc2)CC1`, for which the RP-LC retention time is 1010 s.
For `CC(C)c1cc(C(=O)NC2CC2)nc2cc(-c3ccccn3)nn12` the value was 819 s.
For `Brc1ccc(-c2ccc(CNc3ncn[nH]3)o2)cc1` the value was 708 s.
In the case of `Cc1nnc(-c2ccc3ccn(CC(=O)Nc4cccc(C)c4C)c3c2)o1`, the RP-LC retention time was 798 s.
`COc1ccc(-c2noc(C3CC(=O)N(c4ccc5c(c4)OCCO5)C3)n2)cc1` (stereo not given) returned an RP-LC retention time of 897 s.
Consider `Cc1ccc(NC(=O)C2CCN(S(=O)(=O)c3cc(C(=O)N(C)C)cs3)CC2)cc1C`, for which the RP-LC retention time turned out to be 835 s.
`O=C(CN1CCN(C(=O)c2ccco2)CC1)Nc1cc(Cl)ccc1Cl` displayed an RP-LC retention time of 704 s.
In turn, `Cc1cc(C)cc(NC(=O)CN2CCC(C(=O)NC3CC3)CC2)c1` displayed an RP-LC retention time of 564 s.
`COc1ccc(-c2cn3c(CC(=O)Nc4ccc(S(N)(=O)=O)cc4)csc3n2)cc1OC`: the RP-LC retention time came out at 630 s.
The compound `CNc1nc(SC)n(C)c(=O)c1N=O` came in with an RP-LC retention time of 667 s.
Consider `O=C(Cc1csc2nc(-c3ccccc3)cn12)Nc1ccc(Cl)cc1`, for which the RP-LC retention time came out at 868 s.
With `Cc1ccccc1CNC(=O)CCc1nnc2c3cc(-c4ccc(F)cc4)nn3ccn12`, the RP-LC retention time stood at 811 s.
On to `CNC(=O)c1ccc(-c2nc3cc(NS(=O)(=O)c4ccc(C)cc4C)ccc3n2C)cc1`, for which the RP-LC retention time amounted to 657 s.
`CCOC(=O)C1CCN(C(=O)c2nnc(-c3ccc(S(=O)(=O)N4CCCC4)cc3)o2)CC1` returned an RP-LC retention time of 881 s.
For the compound `CN(C)S(=O)(=O)c1ccc(C(=O)Nc2nnc(-c3cc4ccccc4o3)o2)cc1`, the RP-LC retention time is 789 s.
For `CC(CNC(=O)c1cc2sccc2n1C)c1ccccc1` (stereo not given), the RP-LC retention time amounted to 983 s.
Take `CS(=O)(=O)CCC(C(=O)N1CCN(c2ccccn2)CC1)N1Cc2ccccc2C1=O` (stereo not given): the RP-LC retention time worked out at 917 s.
In the case of `Cn1cc2c3c(cccc31)CN(C(=O)c1ccc(F)cc1Cl)CC2`, the RP-LC retention time came to 958 s.
For the compound `Fc1ccc(-c2nnc(Cc3nc(-c4cccc(F)c4)no3)o2)cc1`, the RP-LC retention time worked out at 990 s.
`CCOC(=O)N1CCN(S(=O)(=O)c2ccc(C(=O)Nc3cc(C)no3)cc2)CC1` displayed an RP-LC retention time of 736 s.
`O=C(Cn1ncc2c(c1=O)N(C1CC1)C(=O)CS2)Nc1ccc2c(c1)OCCO2` returned an RP-LC retention time of 693 s.
Consider `CCCc1nc(N2CCN(c3ccccn3)CC2)ncc1C(=O)O`, for which the RP-LC retention time was 606 s.
`CC(C)COc1cc(=O)n2c(c1C(=O)NC1CCCCC1)CCCCC2` returned an RP-LC retention time of 842 s.
Regarding `CCC(C)NC(=O)C1CCN(C2=NS(=O)(=O)C(c3ccc(OC)cc3)=C2C)CC1` (stereo not given), the RP-LC retention time was determined as 795 s.
In turn, `COc1ccc(OC)c(CNC(=O)C2CCCN(c3ncnc4c3nc3n4CCCCC3)C2)c1` (stereo not given) came in with an RP-LC retention time of 746 s.
With `CCc1ccc(C(=O)N2CC3CN(S(=O)(=O)c4cccc(C)c4)CC(C2)O3)cc1`, the RP-LC retention time is 925 s.
Compound `CCCNC(=O)C1CCN(c2ccc(SCC(=O)Nc3ccc(F)c(F)c3)nn2)CC1` registered an RP-LC retention time of 665 s.
`O=C(O)Cn1c(C(=O)Nc2nc(-c3ccccc3Cl)cs2)cc2ccccc21` displayed an RP-LC retention time of 1130 s.
For `O=C(Nc1ccc(F)cc1F)Nc1c[nH]c2ccccc12` the value was 755 s; for `Cc1ccc(Nc2c(-c3ccc(N4CCOCC4)cc3)nc3ncccn23)cc1Cl`, 751 s.
